Laboratory results from the supplement of paper PMC11208160.
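Also: IS621 bridge recombinase in Escherichia coli cells against a fixed T5 target plasmid.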

Assay: recombinant UMI read abundance after kanamycin selection (control-corrected) (log10(CPM+1)); higher = more efficient recombination; extreme values may be limits of the assay; sequences stand for … in AGTGCAGAGAAAATCGGCCAGTTTTCTCTGCCTGCAGTCCGCATGCCGTGGGACCCCTTGGGTTCTAACCTGTTGCCTAGATTTATGCAGCGGACTGCCTTTCTCCCAAAGTGATAAACCGG…AGGTTGGTTTCACT; site = the 11-nt donor
Method in brief: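 For the IS621 bridge recombinase, a pooled Escherichia coli screen tested donor and donor-binding-loop pairs. Cells received the pair library together with a target plasmid encoding a fixed target and T7-inducible recombinase, then went onto IPTG (0.07 mM) plus kanamycin or unselected plates in duplicate. After PCR across the donor–target junction and sequencing, recombinant UMI counts were normalized to CPM, averaged, and scaled by control-derived factors. Each value is given as log10(CPM+1).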
For “CACGCCTCATGGACCGGTTTTCCCGGTAATCCGTATTTGCC (site CACGCCTCTGG)”, the “recombinant UMI read abundance (log10)” value was 3.32.
With “CACGCCTCATGGACCGGTTTTCCCGGTAATCCGTATTTGCC (site CACTCCTCTGG)” the “recombinant UMI read abundance (log10)” value was 2.11.
For “CACGCGACATGGACCGGTTTTCCCGGTAATCCGTATTTGTA (site CACGCGACTTA)”, the “recombinant UMI read abundance (log10)” value was 2.4.
In the case of “CACGGCCCATGGACCGGTTTTCCCGGTAATCCGTATTTGAT (site CACGGCCCTAA)”, the “recombinant UMI read abundance (log10)” value is reported as 0.0181.
With “CACGGCCCATGGACCGGTTTTCCCGGTAATCCGTATTTGAT (site CACGGCCCTAC)” the “recombinant UMI read abundance (log10)” value was 0.0396.
In the case of “CACGGCCCATGGACCGGTTTTCCCGGTAATCCGTATTTGAT (site CACGGCCCTAG)”, the “recombinant UMI read abundance (log10)” value is reported as 0.
For “CACGGCCCATGGACCGGTTTTCCCGGTAATCCGTATTTGAT (site CACGGCCCTAT)”, the “recombinant UMI read abundance (log10)” value was 0.255.
For “CACGGCCCATGGACCGGTTTTCCCGGTAATCCGTATTTGGT (site CACGGCCCTAA)”, the “recombinant UMI read abundance (log10)” value was 0.0236.
With “CACGGCCCATGGACCGGTTTTCCCGGTAATCCGTATTTGGT (site CACGGCCCTAC)” the “recombinant UMI read abundance (log10)” value was 0.00703.
In the case of “CACGGCCCATGGACCGGTTTTCCCGGTAATCCGTATTTGGT (site CACGGCCCTAG)”, the “recombinant UMI read abundance (log10)” value is reported as 0.
In the case of “CACGGCCCATGGACCGGTTTTCCCGGTAATCCGTATTTGGT (site CACGGCCCTAT)”, the “recombinant UMI read abundance (log10)” value is reported as 0.456.
With “CACGGCCCATGGACCGGTTTTCCCGGTAATCCGTATTTGTA (site CACGGCCCTAA)” the “recombinant UMI read abundance (log10)” value was 0.00609.
For “CACGGCCCATGGACCGGTTTTCCCGGTAATCCGTATTTGTA (site CACGGCCCTCA)”, the “recombinant UMI read abundance (log10)” value was 0.0202.
For “CACGGCCCATGGACCGGTTTTCCCGGTAATCCGTATTTGTA (site CACGGCCCTGA)”, the “recombinant UMI read abundance (log10)” value was 1.81.
With “CACGGCCCATGGACCGGTTTTCCCGGTAATCCGTATTTGTA (site CACGGCCCTTA)” the “recombinant UMI read abundance (log10)” value was 0.29.
With “CACGGGCCATGGACCGGTTTTCCCGGTAATCCGTATTTGTT (site CACGGACCTAA)” the “recombinant UMI read abundance (log10)” value was 0.
In the case of “CACGGGCCATGGACCGGTTTTCCCGGTAATCCGTATTTGTT (site CACGGCCCTAA)”, the “recombinant UMI read abundance (log10)” value is reported as 0.234.
For “CACGGGCCATGGACCGGTTTTCCCGGTAATCCGTATTTGTT (site CACGGGCCTAA)”, the “recombinant UMI read abundance (log10)” value was 0.574.
With “CACGGGCCATGGACCGGTTTTCCCGGTAATCCGTATTTGTT (site CACGGTCCTAA)” the “recombinant UMI read abundance (log10)” value was 0.00819.
In the case of “CACGGGTCATGGACCGGTTTTCCCGGTAATCCGTATTTGCT (site CACGGGTCTAG)”, the “recombinant UMI read abundance (log10)” value is reported as 2.17.
In the case of “CACGGTCCATGGACCGGTTTTCCCGGTAATCCGTATTTGAT (site CACGGTCCTAT)”, the “recombinant UMI read abundance (log10)” value is reported as 0.938.
With “CACGGTTCATGGACCGGTTTTCCCGGTAATCCGTATTTGGG (site CACGGTTCTCC)” the “recombinant UMI read abundance (log10)” value was 1.03.
With “CACGTACCATGGACCGGTTTTCCCGGTAATCCGTATTTGCA (site CACGTACCTTG)” the “recombinant UMI read abundance (log10)” value was 0.
In the case of “CACTACTCATGGACCGGTTTTCCCGGTAATCCGTATTTGTT (site CACTACTCTAA)”, the “recombinant UMI read abundance (log10)” value is reported as 2.71.
With “CACTAGGCATGGACCGGTTTTCCCGGTAATCCGTATTTGTA (site CACTAGGCTTA)” the “recombinant UMI read abundance (log10)” value was 1.42.
With “CACTATGCATGGACCGGTTTTCCCGGTAATCCGTATTTGAT (site CACTATGCTAT)” the “recombinant UMI read abundance (log10)” value was 1.93.
For “CACTCAGCATGGACCGGTTTTCCCGGTAATCCGTATTTGCC (site CACTCAGCTGG)”, the “recombinant UMI read abundance (log10)” value was 2.5.
For “CACTCCACATGGACCGGTTTTCCCGGTAATCCGTATTTGCG (site CACTCCACTCG)”, the “recombinant UMI read abundance (log10)” value was 1.09.
For “CACTCGGCATGGACCGGTTTTCCCGGTAATCCGTATTTGGA (site CACTAGGCTTC)”, the “recombinant UMI read abundance (log10)” value was 0.232.
For “CACTCGGCATGGACCGGTTTTCCCGGTAATCCGTATTTGGA (site CACTCGGCTTC)”, the “recombinant UMI read abundance (log10)” value was 1.09.
With “CACTCGGCATGGACCGGTTTTCCCGGTAATCCGTATTTGGA (site CACTGGGCTTC)” the “recombinant UMI read abundance (log10)” value was 0.201.
For “CACTCGGCATGGACCGGTTTTCCCGGTAATCCGTATTTGGA (site CACTTGGCTTC)”, the “recombinant UMI read abundance (log10)” value was 0.0193.
For “CACTCTTCATGGACCGGTTTTCCCGGTAATCCGTATTTGCC (site CACTCATCTGG)”, the “recombinant UMI read abundance (log10)” value was 1.6.
In the case of “CACTCTTCATGGACCGGTTTTCCCGGTAATCCGTATTTGCC (site CACTCCTCTGG)”, the “recombinant UMI read abundance (log10)” value is reported as 2.13.
With “CACTCTTCATGGACCGGTTTTCCCGGTAATCCGTATTTGCC (site CACTCGTCTGG)” the “recombinant UMI read abundance (log10)” value was 0.
For “CACTCTTCATGGACCGGTTTTCCCGGTAATCCGTATTTGCC (site CACTCTTCTGG)”, the “recombinant UMI read abundance (log10)” value was 2.07.
With “CACTGTACATGGACCGGTTTTCCCGGTAATCCGTATTTGCG (site CACTGTACTCG)” the “recombinant UMI read abundance (log10)” value was 1.83.
For “CACTTAGCATGGACCGGTTTTCCCGGTAATCCGTATTTGGA (site CACTTAGCTTC)”, the “recombinant UMI read abundance (log10)” value was 1.16.
In the case of “CACTTAGCATGGACCGGTTTTCCCGGTAATCCGTATTTGGA (site CACTTCGCTTC)”, the “recombinant UMI read abundance (log10)” value is reported as 0.00475.
With “CACTTAGCATGGACCGGTTTTCCCGGTAATCCGTATTTGGA (site CACTTGGCTTC)” the “recombinant UMI read abundance (log10)” value was 0.0129.
With “CACTTAGCATGGACCGGTTTTCCCGGTAATCCGTATTTGGA (site CACTTTGCTTC)” the “recombinant UMI read abundance (log10)” value was 0.
For “CACTTGCCATGGACCGGTTTTCCCGGTAATCCGTATTTGGA (site CACTTGACTTC)”, the “recombinant UMI read abundance (log10)” value was 0.0268.
In the case of “CACTTGCCATGGACCGGTTTTCCCGGTAATCCGTATTTGGA (site CACTTGCCTTC)”, the “recombinant UMI read abundance (log10)” value is reported as 0.021.
For “CACTTGCCATGGACCGGTTTTCCCGGTAATCCGTATTTGGA (site CACTTGGCTTC)”, the “recombinant UMI read abundance (log10)” value was 0.0247.
For “CACTTGCCATGGACCGGTTTTCCCGGTAATCCGTATTTGGA (site CACTTGTCTTC)”, the “recombinant UMI read abundance (log10)” value was 0.137.
In the case of “CACTTGGCATGGACCGGTTTTCCCGGTAATCCGTATTTGGA (site AACTTGGCTTC)”, the “recombinant UMI read abundance (log10)” value is reported as 0.00381.
For “CACTTGGCATGGACCGGTTTTCCCGGTAATCCGTATTTGGA (site CAATTGGCTTC)”, the “recombinant UMI read abundance (log10)” value was 0.432.
With “CACTTGGCATGGACCGGTTTTCCCGGTAATCCGTATTTGGA (site CACATGGCTTC)” the “recombinant UMI read abundance (log10)” value was 0.0226.
With “CACTTGGCATGGACCGGTTTTCCCGGTAATCCGTATTTGGA (site CACCTGGCTTC)” the “recombinant UMI read abundance (log10)” value was 0.612.
In the case of “CACTTGGCATGGACCGGTTTTCCCGGTAATCCGTATTTGGA (site CACGTGGCTTC)”, the “recombinant UMI read abundance (log10)” value is reported as 0.024.
For “CACTTGGCATGGACCGGTTTTCCCGGTAATCCGTATTTGGA (site CACTAGGCTTC)”, the “recombinant UMI read abundance (log10)” value was 0.104.
In the case of “CACTTGGCATGGACCGGTTTTCCCGGTAATCCGTATTTGGA (site CACTCGGCTTC)”, the “recombinant UMI read abundance (log10)” value is reported as 0.0123.
With “CACTTGGCATGGACCGGTTTTCCCGGTAATCCGTATTTGGA (site CACTGGGCTTC)” the “recombinant UMI read abundance (log10)” value was 0.0362.
With “CACTTGGCATGGACCGGTTTTCCCGGTAATCCGTATTTGGA (site CACTTAGCTTC)” the “recombinant UMI read abundance (log10)” value was 1.14.
In the case of “CACTTGGCATGGACCGGTTTTCCCGGTAATCCGTATTTGGA (site CACTTCGCTTC)”, the “recombinant UMI read abundance (log10)” value is reported as 0.0367.
With “CACTTGGCATGGACCGGTTTTCCCGGTAATCCGTATTTGGA (site CACTTGACTTC)” the “recombinant UMI read abundance (log10)” value was 0.231.
With “CACTTGGCATGGACCGGTTTTCCCGGTAATCCGTATTTGGA (site CACTTGCCTTC)” the “recombinant UMI read abundance (log10)” value was 0.407.
With “CACTTGGCATGGACCGGTTTTCCCGGTAATCCGTATTTGGA (site CACTTGGCTAC)” the “recombinant UMI read abundance (log10)” value was 0.013.
In the case of “CACTTGGCATGGACCGGTTTTCCCGGTAATCCGTATTTGGA (site CACTTGGCTCC)”, the “recombinant UMI read abundance (log10)” value is reported as 0.381.
With “CACTTGGCATGGACCGGTTTTCCCGGTAATCCGTATTTGGA (site CACTTGGCTGC)” the “recombinant UMI read abundance (log10)” value was 0.96.
For “CACTTGGCATGGACCGGTTTTCCCGGTAATCCGTATTTGGA (site CACTTGGCTTA)”, the “recombinant UMI read abundance (log10)” value was 1.12.
In the case of “CACTTGGCATGGACCGGTTTTCCCGGTAATCCGTATTTGGA (site CACTTGGCTTC)”, the “recombinant UMI read abundance (log10)” value is reported as 0.91.
With “CACTTGGCATGGACCGGTTTTCCCGGTAATCCGTATTTGGA (site CACTTGGCTTG)” the “recombinant UMI read abundance (log10)” value was 0.926.
With “CACTTGGCATGGACCGGTTTTCCCGGTAATCCGTATTTGGA (site CACTTGGCTTT)” the “recombinant UMI read abundance (log10)” value was 1.77.
For “CACTTGGCATGGACCGGTTTTCCCGGTAATCCGTATTTGGA (site CACTTGTCTTC)”, the “recombinant UMI read abundance (log10)” value was 0.78.
With “CACTTGGCATGGACCGGTTTTCCCGGTAATCCGTATTTGGA (site CACTTTGCTTC)” the “recombinant UMI read abundance (log10)” value was 0.00347.
In the case of “CACTTGGCATGGACCGGTTTTCCCGGTAATCCGTATTTGGA (site CAGTTGGCTTC)”, the “recombinant UMI read abundance (log10)” value is reported as 0.28.
For “CACTTGGCATGGACCGGTTTTCCCGGTAATCCGTATTTGGA (site CATTTGGCTTC)”, the “recombinant UMI read abundance (log10)” value was 0.342.
In the case of “CACTTGGCATGGACCGGTTTTCCCGGTAATCCGTATTTGGA (site CCCTTGGCTTC)”, the “recombinant UMI read abundance (log10)” value is reported as 0.304.
With “CACTTGGCATGGACCGGTTTTCCCGGTAATCCGTATTTGGA (site CGCTTGGCTTC)” the “recombinant UMI read abundance (log10)” value was 0.439.
For “CACTTGGCATGGACCGGTTTTCCCGGTAATCCGTATTTGGA (site CTCTTGGCTTC)”, the “recombinant UMI read abundance (log10)” value was 0.0309.
In the case of “CACTTGGCATGGACCGGTTTTCCCGGTAATCCGTATTTGGA (site GACTTGGCTTC)”, the “recombinant UMI read abundance (log10)” value is reported as 0.112.
For “CACTTGGCATGGACCGGTTTTCCCGGTAATCCGTATTTGGA (site TACTTGGCTTC)”, the “recombinant UMI read abundance (log10)” value was 0.275.
With “CACTTGGCATGGACCGGTTTTCCCGGTAATCCGTATTTGGC (site CACTTGGCTAC)” the “recombinant UMI read abundance (log10)” value was 0.012.
With “CACTTGGCATGGACCGGTTTTCCCGGTAATCCGTATTTGGC (site CACTTGGCTCC)” the “recombinant UMI read abundance (log10)” value was 0.0109.
